Values after ≈ are worked out from the molar mass of the structure shown.
How the values were obtained:
[1] = system: U251 (glioma, CNS); experiment: cells
Experimental: The GI50 values (growth inhibitory activity) (Table 1) refer to the drug concentration that produces a 50% reduction of cellular growth compared with the untreated control cells. The TGI (cytostatic activity) and LC50 (cytotoxic activity) values (Table 2) refer to the drug concentration required for total growth inhibition and killing 50% of the cells, respectively.
The synthesized compounds were assessed in the following ten human tumor cell lines from various tissues kindly provide by the National Cancer Institute (Frederick, MD, USA): U251 (glioma, CNS), MCF-7 (breast), NCI-ADR/RES (breast expressing the multiple drug resistance phenotype), 786-0 (renal), NCI-H460 (lung, non-small cells), PC-3 (prostate), OVCAR-3 (ovarian), HT-29 (colon), K-562 (leukemia) and HaCaT (keratinocytes). Stock cultures were grown in media containing 5 mL of RPMI 1640 (Gibco BRL) supplemented with 5% fetal bovine serum. Gentamicin ([…]) was added to the experimental cultures. Cells in 96-well plates (100 µL cells/well) were exposed to sample concentrations in DMSO/RPMI (0.25, 2.5, 25, and 250 µg/mL) at 37 °C and 5% CO2 for 48 h. […] Next, cells were fixed with 50% trichloroacetic acid, and cell proliferation was determined by spectrophotometric quantification (540 nm) of cellular protein content employing the sulforhodamine B assay. Doxorubicin (0.025–25 µg/mL) was used as a positive control. Three measurements were obtained: first at time point zero (T0, at the beginning of incubation) and then 48 h post-incubation for both the compound-free (C) and tested (T) cells. Cell proliferation was determined using the equation 100 × [(T − T0)/C − T0]. A cytostatic effect was observed when T ≥ T0, while a cytocidal effect occurred when T < T0. The experiments were performed in triplicate.

[2] = system: MCF-7 (breast); experiment: Anticancer assay in vitro (sulforhodamine B), MCF-7; assay type: cell-based
Experimental: (§1) The experiments were performed in triplicate.

[3] = system: OVCAR-3 (ovarian); experiment: Anticancer assay in vitro (sulforhodamine B), OVCAR-3; assay type: cell-based; details: for GI50: OVCAR-3, 48 h, SRB
Experimental: as §1

[4] = system: HT-29 (colon); experiment: Anticancer assay in vitro (sulforhodamine B), HT-29; assay type: cell-based
Experimental: as §1

[5] = system: 786-0 (renal); experiment: cells; assay type: cell-based
Experimental: as §1

[6] = system: K-562 (leukemia); experiment: cells; assay type: cell-based; details: Homo sapiens, K562; K-562, 48 h, SRB
Experimental: as §1

[7] = system: NCI-ADR/RES (breast expressing the multiple drug resistance phenotype); experiment: cells; assay type: cell-based; details: NCI/ADR-RES, 48 h
Experimental: as §1

[8] = system: NCI-H460 (lung, non-small cells); experiment: cells; assay type: cell-based
Experimental: as §1

[9] = system: PC-3 (prostate); experiment: cells; assay type: cell-based
Experimental: as §1

[10] = Anticancer assay in vitro (sulforhodamine B), HaCaT; assay type: cell-based; details: human, HaCaT keratinocytes, killing 50% of cells, read-out: LC50
Experimental: as §1

[11] = system: HaCaT (keratinocytes); experiment: as above; assay type: cell-based; details: 48 h
Experimental: as §1

Work on `NNC(=O)c1cc(O)c(O)c(O)c1` [Compound 3, Galloyl hydrazide] yielded a GI50 ([1]; Homo sapiens, U-251, 48 h) of 1110 nM, a CC50 ([1]; Homo sapiens, U-251, 48 h, read-out: LC50) of 31.4 µg/mL (≈ 170 µM) and a TGI ([1]; U251, total growth inhibition, 48 h) of 6.13 µg/mL (≈ 33.3 µM). It also gave a GI50 ([2]; Homo sapiens, MCF7, MCF-7, 48 h, SRB) of 850 nM, a TGI ([2]; MCF-7, as printed in the text) of 2360 nM and a TGI ([2]; MCF-7, total growth inhibition, 48 h) of 2.36 µg/mL. For the same compound, the GI50 ([3]; Homo sapiens) was at most 890 nM, the GI50 [3] was 880 nM and the TGI ([3]; OVCAR-3, total growth inhibition, 48 h) was 9.77 µg/mL (≈ 53.1 µM). The TGI ([4]; HT-29, total growth inhibition, 48 h) was 3.27 µg/mL (≈ 17.8 µM), the GI50 ([4]; Homo sapiens, HT-29, 48 h, SRB) was 1210 nM and the CC50 ([4]; Homo sapiens, HT-29, killing 50% of cells, 48 h, read-out: LC50 (the source's name)) was 26.2 µg/mL (≈ 142 µM). The TGI ([5]; 786-0, total growth inhibition, 48 h) was 17.98 µg/mL (≈ 97.6 µM), the GI50 ([5]; Homo sapiens, 786-0, 48 h, SRB) was 1560 nM and the GI50 [6] was 1170 nM. For the same compound, the GI50 ([7]; Homo sapiens, SRB) was 910 nM, the TGI ([7]; total growth inhibition) was 2.56 µg/mL (≈ 13.9 µM) and the GI50 ([8]; Homo sapiens, NCI-H460, 48 h, SRB) was 5540 nM. It also gave a TGI ([8]; NCI-H460, total growth inhibition, 48 h) of 17.35 µg/mL (≈ 94.2 µM), a GI50 ([9]; Homo sapiens, PC-3, 48 h, SRB) of 3530 nM and a TGI ([9]; PC-3, total growth inhibition, 48 h) of 18.31 µg/mL (≈ 99.4 µM). The CC50 at 48 h [10] was over 100 µg/mL, the GI50 ([11]; Homo sapiens, SRB) was 2500 nM and the TGI ([11]; total growth inhibition) was 29.02 µg/mL (≈ 158 µM).

Reference: article PMC6272127, “Synthesis, Antiproliferative Activity and Molecular Properties Predictions of Galloyl Derivatives” (Molecules, 2015)
